Data reported in US5602106A, “16-membered macrolide derivatives” (priority 1993, dated 1997).
In brackets after ≈: the same amount, converted by molar mass. Read-outs that look alike come from different tables or passages of the source.

Columns and labels:
[1] = test system: test strains; test: Antimicrobial activity in vitro, test strains overall; assay type: cell-based; conditions: for antimicrobial activities in vitro compared with miokamycin: vs miokamycin (MOM)
Method: (§1) The effect of the first aspect of the present invention resides in the creation of a novel and useful 16-membered macrolide derivative. Antimicrobial activities of the compounds of the present invention were determined by measuring minimum inhibitory concentration (MIC). Minimum inhibitory concentration was determined by the agar plate dilution method in the following manner.
(§2) Test strains were subjected to seed culture using Sensitivity test broth (STB, Nissui Pharmaceutical) except that the strains belonging to the genus Streptococcus, Branhamella and Haemophilus were cultured on blood agar plate. A 5 μl portion of cell suspension of the test strains having about 10^6 CFU/ml was inoculated into Sensitivity disk agar (SDA, Nissui Pharmaceutical) supplemented with 5% horse blood and incubated at 37° C. for 20 hours. Then, MIC was measured. […] Antimicrobial activities in vitro of the compounds (1) and (2) are shown in Table 1, and those of the compounds (3) and (4) in Table 3.

[2] = test system: Branhamella catarrhalis; test: Antimicrobial activity in vitro; assay type: cell-based; conditions: vs compound (5)
Method: as §1, §2

[3] = test system: Streptococcus pneumoniae DP-1 Type 1; test: Infection-treating test in mice; assay type: in vivo
Text: The compounds represented by the formula (I) exert excellent in vivo effects in infection-treating tests in mice in comparison with the case of currently known 16-membered macrolide antimicrobial agents. […] Such an excellent effect is related not to the ester bonding of the tertiary hydroxyl group at the 3"-position with an acyl group but directly to its ether bonding with a methyl group. […] In this connection, it has been reported that an isovaleryl group linked to a hydroxyl group at the 4"-position cannot easily be cleaved in rat blood plasma when compared with a propionyl group [Yakugaku Zasshi, 102(8), 781 (1982)].

[4] = test system: B. catarrhalis W-0500; test: MIC, agar plate dilution method; assay type: cell-based; conditions: Moraxella catarrhalis
Method: as §1, §2

[5] = test system: B. catarrhalis W-0506; test: MIC, agar plate dilution method; assay type: cell-based; conditions: Moraxella catarrhalis
Method: as §1, §2

[6] = test system: E. coli NIHJ JC-2; test: MIC, agar plate dilution method; assay type: cell-based; conditions: Escherichia coli, NIHJJC2, 20 h, 37° C., SDA with 5% horse blood, read-out: Antimicrobial activity (MIC)
Method: as §1, §2

[7] = test system: E. faecalis W-73; test: MIC, agar plate dilution method; assay type: cell-based; conditions: Enterococcus faecalis, W73, 20 h, read-out: Antimicrobial activity (MIC)
Method: as §1, §2

[8] = test system: H. influenzae 9334; test: MIC, agar plate dilution method; assay type: cell-based
Method: as §1, §2

[9] = test system: H. influenzae Type b; test: MIC, agar plate dilution method; assay type: cell-based; conditions: for MIC: Haemophilus influenzae, 20 h, read-out: Antimicrobial activity (MIC), 37° C., 20 hours, SDA with 5% horse blood
Method: as §1, §2

[10] = test system: K. pneumoniae PCI602; test: MIC, agar plate dilution method; assay type: cell-based; conditions: Klebsiella pneumoniae, PCI602, 20 h, 37° C., SDA with 5% horse blood, read-out: Antimicrobial activity (MIC)
Method: as §1, §2

[11] = test system: M. luteus ATCC9341; test: MIC, agar plate dilution method; assay type: cell-based; conditions: Micrococcus luteus
Method: as §1, §2

[12] = test system: S. aureus 209P JC-1; test: MIC, agar plate dilution method; assay type: cell-based; conditions: for MIC: Staphylococcus aureus, 209P, 20 h, read-out: Antimicrobial activity (MIC), 37° C., 20 hours, SDA with 5% horse blood
Method: as §1, §2

[13] = test system: S. aureus M126; test: MIC, agar plate dilution method; assay type: cell-based; conditions: Staphylococcus aureus, 37° C., 20 hours, SDA with 5% horse blood, read-out: Antimicrobial activity (MIC)
Method: as §1, §2

[14] = test system: S. aureus M133; test: MIC, agar plate dilution method; assay type: cell-based; conditions: for MIC: Staphylococcus aureus, M133, 20 h, read-out: Antimicrobial activity (MIC), 37° C., 20 hours, SDA with 5% horse blood
Method: as §1, §2

[15] = test system: S. aureus MS15009/pMS98; test: MIC, agar plate dilution method; assay type: cell-based; conditions: for MIC: Staphylococcus aureus, MS15009/PMS98, 20 h, read-out: Antimicrobial activity (MIC), 37° C., 20 hours, SDA with 5% horse blood
Method: as §1, §2

[16] = test system: S. aureus MS15009/pMS99; test: MIC, agar plate dilution method; assay type: cell-based; conditions: Staphylococcus aureus, MS15009/PMS99, 20 h, read-out: Antimicrobial activity (MIC)
Method: as §1, §2

[17] = test system: S. aureus MS15026; test: MIC, agar plate dilution method; assay type: cell-based; conditions: Staphylococcus aureus, 37° C., 20 hours, SDA with 5% horse blood, read-out: Antimicrobial activity (MIC)
Method: as §1, §2

[18] = test system: S. aureus MS15027; test: MIC, agar plate dilution method; assay type: cell-based; conditions: Staphylococcus aureus, MS15027, 20 h, read-out: Antimicrobial activity (MIC), 37° C., 20 hours, SDA with 5% horse blood
Method: as §1, §2

[19] = test system: S. epidermidis ATCC14990; test: MIC, agar plate dilution method; assay type: cell-based; conditions: Staphylococcus epidermidis, ATCC14990, 20 h, read-out: Antimicrobial activity (MIC), 37° C., 20 hours, SDA with 5% horse blood
Method: as §1, §2

[20] = test system: S. pneumoniae IP692; test: MIC, agar plate dilution method; assay type: cell-based; conditions: for MIC: Streptococcus pneumoniae, IP692, 20 h, read-out: Antimicrobial activity (MIC), 37° C., 20 hours, SDA with 5% horse blood
Method: as §1, §2

[21] = test system: S. pneumoniae Type 1; test: MIC, agar plate dilution method; assay type: cell-based; conditions: for MIC: Streptococcus pneumoniae, TYPE1, 20 h, read-out: Antimicrobial activity (MIC), 37° C., 20 hours, SDA with 5% horse blood
Method: as §1, §2

[22] = test system: S. pyogenes Cook; test: MIC, agar plate dilution method; assay type: cell-based; conditions: Streptococcus pyogenes
Method: as §1, §2

[23] = literature; cited from earlier work
[24] = test system: B. catarrhalis W-0400; test: MIC, agar plate dilution method; assay type: cell-based; conditions: Moraxella catarrhalis, W0400, 20 h, read-out: Antimicrobial activity (MIC)
Method: as §1, §2

[25] = test system: Streptococcus pneumoniae; test: Antimicrobial activity in vitro; assay type: cell-based; conditions: compared with MDM and LM-A7
Method: as §1, §2

[26] = test system: clinically important Gram-positive bacteria; test: Antimicrobial activity / growth inhibition; assay type: cell-based
Method: as §1, §2

[27] = Haemophilus influenzae, 9334, 20 h, read-out: Antimicrobial activity (MIC), 37° C., 20 hours, SDA with 5% horse blood
[28] = 20 h, read-out: Antimicrobial activity (MIC), 37° C., 20 hours, SDA with 5% horse blood
[29] = 37° C., 20 hours, SDA with 5% horse blood
[30] = ATCC9341, 37° C., 20 hours, SDA with 5% horse blood, read-out: Antimicrobial activity (MIC)

Row | SMILES | antimicrobial activities in vitro compared with miokamycin [1] | MIC [6] [µg/mL] | MIC [7] [µg/mL] | MIC [8, 27] [µg/mL] | MIC [9] [µg/mL] | MIC [10] [µg/mL] | MIC [12] [µg/mL] | MIC [13] [µg/mL] | MIC [14] [µg/mL] | MIC [15] [µg/mL] | MIC [16] [µg/mL] | MIC [17] [µg/mL] | MIC [18] [µg/mL] | MIC [19] [µg/mL] | MIC [20] [µg/mL] | MIC [21] [µg/mL] | MIC [22, 28] [µg/mL] | metabolism and loss of antimicrobial activity after oral administration [23] | MIC [7, 29] [µg/mL] | MIC [11, 30] [µg/mL] | further results
1 | CO[C@@H]1[C@@H](O[C@@H]2O[C@H](C)[C@@H](O[C@H]3C[C@@](C)(OC)[C@@H](OC(=O)CC(C)C)[C@H](C)O3)[C@H](N(C)C)[C@H]2O)[C@@H](CC=O)C[C@@H](C)[C@@H](OC(C)=O)/C=C/C=C/C[C@@H](C)OC(=O)C[C@H]1OC(C)=O [(11), 9-O-acetyl-3"-O-methyljosamycin] | comparable to or higher | – | – | – | – | – | – | – | – | – | – | – | – | – | – | – | – | – | – | – | antimicrobial activity against Branhamella catarrhalis compared with compound (5) [2]: slightly superior to that of the compound (5)
2 | CCC(=O)O[C@@H]1CC(=O)O[C@H](C)C/C=C/C=C/[C@H](OC(C)=O)[C@H](C)C[C@H](CC=O)[C@H](O[C@@H]2O[C@H](C)[C@@H](O[C@H]3C[C@@](C)(OC)[C@@H](OC(=O)CC)[C@H](C)O3)[C@H](N(C)C)[C@H]2O)[C@H]1OC [(5), 9-O-acetyl-3"-O-methylmidecamycin A1] | comparable to or higher | – | – | – | – | – | – | – | – | – | – | – | – | – | – | – | – | – | – | – | antimicrobial activities compared with starting materials (1), (2) and (33) ([1]; 9-O-acylated vs free 9-hydroxyl): strong antimicrobial activities by themselves though slightly lower than those of their starting materials; amount giving a coordinate infection-treating effect relative to miokamycin ([3]; fraction of miokamycin amount): 1/4; amount giving a coordinate infection-treating effect relative to rokitamycin ([3]; fraction of rokitamycin amount): 1/8
3 | CCC(=O)O[C@@H]1CC(=O)O[C@H](C)C/C=C/C=C/[C@H](OC(C)=O)[C@H](C)C[C@H](CC=O)[C@H](O[C@@H]2O[C@H](C)[C@@H](O[C@H]3C[C@@](C)(OC(C)=O)[C@@H](OC(=O)CC)[C@H](C)O3)[C@H](N(C)C)[C@H]2O)[C@H]1OC [MOM, miokamycin, reference compound] | – | > 100 | 6.25 (≈ 6.96 µM) | 6.25 (≈ 6.96 µM) | 50 (≈ 55.7 µM) | > 100 | 0.39 (≈ 0.434 µM) | > 100 | 0.78 (≈ 0.869 µM) | 0.78 (≈ 0.869 µM) | > 100 | > 100 | 0.78 (≈ 0.869 µM) | 0.78 (≈ 0.869 µM) | 0.2 (≈ 0.223 µM) | 0.2 (≈ 0.223 µM) | 0.2 (≈ 0.223 µM) | an acyl group of a neutral sugar moiety of the administered drug is cleaved with time and antimicrobial activities of the drug itself therefore is reduced gradually | – | – | MIC ([4]; W0500, 37° C., 20 hours, SDA with 5% horse blood, read-out: Antimicrobial activity (MIC)): 1.56 µg/mL (≈ 1.74 µM); MIC ([5]; W0506, 37° C., 20 hours, SDA with 5% horse blood, read-out: Antimicrobial activity (MIC)): 1.56 µg/mL (≈ 1.74 µM); MIC ([11]; ATCC9341, 20 h, read-out: Antimicrobial activity (MIC), 37° C., 20 hours, SDA with 5% horse blood): 0.1 µg/mL (≈ 0.111 µM)
4 | CCCC(=O)O[C@H]1[C@H](C)O[C@@H](O[C@H]2[C@H](N(C)C)[C@@H](O)[C@H](O[C@H]3[C@@H](CC=O)C[C@@H](C)[C@@H](O)/C=C/C=C/C[C@@H](C)OC(=O)C[C@@H](O)[C@@H]3OC)O[C@@H]2C)C[C@@]1(C)OC(=O)CC [RKM, rokitamycin, reference compound] | – | > 100 | 0.39 (≈ 0.471 µM) | 6.25 (≈ 7.55 µM) | 6.25 (≈ 7.55 µM) | > 100 | 0.1 (≈ 0.121 µM) | > 100 | 0.39 (≈ 0.471 µM) | 0.39 (≈ 0.471 µM) | > 100 | > 100 | 0.78 (≈ 0.942 µM) | 0.78 (≈ 0.942 µM) | 0.1 (≈ 0.121 µM) | 0.1 (≈ 0.121 µM) | 0.2 (≈ 0.242 µM) | an acyl group of a neutral sugar moiety of the administered drug is cleaved with time and antimicrobial activities of the drug itself therefore is reduced gradually | 1.56 (≈ 1.88 µM) | 0.05 (≈ 0.0604 µM) | MIC [24]: 0.39 µg/mL (≈ 0.471 µM); MIC ([8]; Haemophilus influenzae, 9334, 37° C., 20 hours, SDA with 5% horse blood, read-out: Antimicrobial activity (MIC)): 1.56 µg/mL (≈ 1.88 µM); Antimicrobial activity (MIC) [9, 29]: 12.5 µg/mL; Antimicrobial activity (MIC) [12, 29]: 0.20 µg/mL; Antimicrobial activity (MIC) [14, 29]: 0.78 µg/mL; Antimicrobial activity (MIC) [15, 29]: 0.78 µg/mL; Antimicrobial activity (MIC) [20, 29]: 0.20 µg/mL; Antimicrobial activity (MIC) [21, 29]: 0.20 µg/mL; MIC ([22]; 37° C., 20 hours, SDA with 5% horse blood, read-out: Antimicrobial activity (MIC)): 0.05 µg/mL (≈ 0.0604 µM)
5 | CCC(=O)O[C@@H]1CC(=O)O[C@H](C)C/C=C/C=C/[C@H](O)[C@H](C)C[C@H](CC=O)[C@H](O[C@@H]2O[C@H](C)[C@@H](O[C@H]3C[C@@](C)(OC)[C@@H](OC(=O)CC)[C@H](C)O3)[C@H](N(C)C)[C@H]2O)[C@H]1OC [(1), 3"-O-methylmidecamycin A1] | – | – | – | – | 12.5 (≈ 15.1 µM) | > 100 | 0.2 (≈ 0.242 µM) | > 100 | 0.39 (≈ 0.471 µM) | 0.2 (≈ 0.242 µM) | > 100 | > 100 | 0.39 (≈ 0.471 µM) | 0.78 (≈ 0.942 µM) | 0.1 (≈ 0.121 µM) | 0.1 (≈ 0.121 µM) | – | – | 1.56 (≈ 1.88 µM) | 0.05 (≈ 0.0604 µM) | MIC ([4]; W0500, 20 h, read-out: Antimicrobial activity (MIC), 37° C., 20 hours, SDA with 5% horse blood): 0.78 µg/mL (≈ 0.942 µM); MIC ([5]; W0506, 20 h, read-out: Antimicrobial activity (MIC), 37° C., 20 hours, SDA with 5% horse blood): 0.78 µg/mL (≈ 0.942 µM); antimicrobial activities in vitro compared with corresponding compounds having free 3"-hydroxyl (MDM, LM-A7) ([1]; against most of test strains): twice as high; antimicrobial activity against Streptococcus pneumoniae [25]: considerably improved antimicrobial activity; antimicrobial activities (in words) [26]: strong antimicrobial activities
